The values below come from publication PMC5889475 (Biochimie Open, 2015).

Each structure is given as a SMILES string.

The experiment concerns the target T1, His-GlNMNAT (GlNMNAT, GlNMNAT-A) (Giardia duodenalis, UniProt A8BW22).
T1 sequence (A8BW22 1-227): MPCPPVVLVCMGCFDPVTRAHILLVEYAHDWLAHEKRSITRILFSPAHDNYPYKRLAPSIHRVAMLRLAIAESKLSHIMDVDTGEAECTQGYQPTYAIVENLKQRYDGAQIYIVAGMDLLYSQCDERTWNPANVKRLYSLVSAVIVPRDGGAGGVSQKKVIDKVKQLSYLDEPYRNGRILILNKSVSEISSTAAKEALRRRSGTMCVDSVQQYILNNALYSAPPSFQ
The experiment in a line: C18-HPLC of NAAD formation. The format is biochemical. The settings on record: ATP 10 mM; NAMN 0.25-12 mM.

On to `O=C([O-])c1ccc[n+]([C@@H]2O[C@H](COP(=O)(O)O)[C@@H](O)[C@H]2O)c1` [NAMN], for which the “C18-HPLC of NAAD formation” value is recorded as “for NAMN saturation was not observed, implying that the enzyme has low affinity yet detectable”.
